The source of these data is article PMC3950977 (Nanotechnology, 2011).

Series [1] in a line: Peptide degradation by proteinase K. Format: in vitro ADME. As to conditions: isolated enzyme proteinase k, pH 7.1.
For series [2] the following is noted: transmission electron microscopy and dynamic light scattering; cited from earlier work.

Peptide text beside a SMILES is read from it. * marks the point of attachment. X1 = NC(=O)CCOCCOCCOCCOCCOCCOCCOCCOCCOCCOCCOCCOCCOCCOCCOCCOCCOCCOCCOCCOCCOCCOCCOCCOCCOCCOCCOCCOCCN*

`CC[C@H](C)[C@H](NC(=O)[C@@H](NC(=O)[C@H](Cc1ccccc1)NC(=O)[C@H](CC(C)C)NC(=O)[C@@H](N)CC(C)C)C(C)C)C(=O)N[C@H](C(=O)N[C@@H](CC(C)C)C(=O)N1CCC[C@H]1C(=O)N[C@@H](Cc1ccccc1)C(=O)N[C@@H](Cc1c[nH]c2ccccc12)C(=O)N[C@@H](C)C(=O)N[C@H](C(=O)N[C@@H](CC(=O)O)C(=O)N[C@@H](C)C(=O)N[C@H](C(=O)N[C@@H](C)C(=O)N[C@@H](CC(N)=O)C(=O)N[C@@H](Cc1c[nH]c2ccccc12)C(=O)N[C@@H](Cc1ccc(O)cc1)C(=O)N[C@@H](Cc1ccccc1)C(=O)NCC(=O)N[C@@H](CC(N)=O)C(=O)N[C@@H](CC(=O)O)C(=O)N[C@@H](CC(=O)O)C(=O)NCCOCCOCCOCCOCCOCCOCCOCCOCCOCCOCCOCCOCCOCCOCCOCCOCCOCCOCCOCCOCCOCCOCCOCCOCCOCCOCCOCCOCCC(N)=O)C(C)C)C(C)C)[C@@H](C)O` [x4-2-6] (H-LLFVITLPFWAVDAVANWYFGNDD-X1) gave a half-life in series [1] of 11.8 ± 1.8 min. Besides, the “diameter of self-assembled nanospheres” value in series [2] was 10 nm. Molecule `CC[C@H](C)[C@H](NC(=O)[C@@H](NC(=O)[C@@H](N)Cc1ccccc1)C(C)C)C(=O)N[C@H](C(=O)N[C@@H](CC(C)C)C(=O)N1CCC[C@H]1C(=O)N[C@@H](Cc1ccccc1)C(=O)N[C@@H](Cc1c[nH]c2ccccc12)C(=O)N[C@@H](C)C(=O)N[C@H](C(=O)N[C@@H](CC(=O)O)C(=O)N[C@@H](C)C(=O)N[C@H](C(=O)N[C@@H](C)C(=O)N[C@@H](CC(N)=O)C(=O)N[C@@H](Cc1c[nH]c2ccccc12)C(=O)N[C@@H](Cc1ccc(O)cc1)C(=O)N[C@@H](Cc1ccccc1)C(=O)NCC(=O)N[C@@H](CC(N)=O)C(=O)N[C@@H](CC(=O)O)C(=O)N[C@@H](CC(=O)O)C(=O)NCCOCCOCCOCCOCCOCCOCCOCCOCCOCCOCCOCCOCCOCCOCCOCCOCCOCCOCCOCCOCCOCCOCCOCCOCCOCCOCCOCCOCCC(N)=O)C(C)C)C(C)C)[C@@H](C)O` [x4-2-9] (H-FVITLPFWAVDAVANWYFGNDD-X1) had a half-life in series [1] of 2.9 ± 1.2 min.
